# In publication PMC6152678, “In Vitro Comparative Study of the Inhibitory Effects of Mangiferin and Its Aglycone Norathyriol towards UDP-Glucuronosyl Transferase (UGT) Isoforms” (Molecules : A Journal of Synthetic Chemistry and Natural …, 2017):
# What was measured:
# [1] = target: T1, UGT1A1 (Homo sapiens, UniProt P22309); experiment: Inhibition of recombinant UGT-catalyzed 4-MU glucuronidation; assay type: biochemical; conditions: pH 7.4, probe 4-methylumbelliferone (4-MU), 110 μM, 100 μM compound, 4-MU probe substrate, negative = activation
# T1 construct: purchased BD Gentest Corp. (Woburn, MA, USA); host or cells: baculovirus-infected insect cells
# T1 sequence (P22309 26-533): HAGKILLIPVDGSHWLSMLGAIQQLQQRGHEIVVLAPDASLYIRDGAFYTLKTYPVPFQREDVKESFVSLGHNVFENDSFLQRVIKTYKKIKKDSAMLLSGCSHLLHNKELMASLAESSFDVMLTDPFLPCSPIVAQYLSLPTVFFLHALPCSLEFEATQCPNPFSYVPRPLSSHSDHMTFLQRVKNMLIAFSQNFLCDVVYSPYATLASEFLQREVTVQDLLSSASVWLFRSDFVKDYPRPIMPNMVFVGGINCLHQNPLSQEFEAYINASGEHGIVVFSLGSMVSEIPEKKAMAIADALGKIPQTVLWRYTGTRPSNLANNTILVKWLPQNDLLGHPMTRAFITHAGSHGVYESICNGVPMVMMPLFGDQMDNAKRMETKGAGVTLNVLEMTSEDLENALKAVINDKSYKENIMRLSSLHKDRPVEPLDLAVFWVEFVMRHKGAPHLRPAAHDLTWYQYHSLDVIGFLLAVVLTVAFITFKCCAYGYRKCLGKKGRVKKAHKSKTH
# Procedure: (§1) Sigma-Aldrich (St Louis, MO, USA) provided the following constituents in the incubation mixture: 4-methylumbelliferone (4-MU), 4-methylumbelliferone-β-D-glucuronide (4-MUG), Tris-HCl, 7-hydroxycoumarin, and uridine-diphosphoglucuronic acid (UDPGA) (trisodium salt). All other compounds were of high-performance liquid chromatography (HPLC) grade or of the highest grade commercially available. For enzyme sources, recombinant UGT isoforms expressed in baculovirus-infected insect cells were purchased from BD Gentest Corp. (Woburn, MA, USA), including UGT1A1, 1A3, 1A6, 1A7, 1A8, 1A9, 1A10, 2B4, 2B7, 2B15, and 2B17.
# (§2) 4-MU, a nonspecific probe substrate for all the UGT isoforms, was employed to investigate the inhibition of MEF and NIR towards the activity of UGT isoforms. The incubation and analytical methods have been previously described. […] MEF and NIR were dissolved in the DMSO to make a stock solution of 20 mM, and various concentrations of working solutions were prepared through dilution with DMSO. 4-MU was used as a non-selective substrate of UGTs. There was a 5-min pre-incubation step at 37 °C before the reaction was initiated by the addition of UDPGA. 4-MU and inhibitors were previously dissolved in DMSO, and the total concentration of DMSO was 1%. The reactions were continued at 37 °C for 120 min for UGT1A1, UGT1A3, UGT1A10, UGT2B4, UGT2B7, UGT2B15 and UGT2B17, 30 min for UGT1A6, UGT1A7, UGT1A8, and UGT1A9, respectively. Reactions were terminated by the addition of 100 μL acetonitrile with 7-hydroxycoumarin (100 μM) as internal standard. The incubation mixtures were then centrifuged at 12,000 r/min for 10 min. 2 μL supernatant was injected into the UPLC system for analysis. An ACQUITY UPLC System (Waters, Milford, MA, USA) equipped with UV detector was used to analyze the samples, and the separation of all the compounds were carried out using a ACQUITY UPLC® BEH C18 (2.1 × 100 mm, 1.7 μm Waters) at a flow rate of 0.2 mL/min and UV detector at 316 nm. The mobile phase was consisted of ultrapure water containing 0.5% formic acid (A) and acetonitrile (B). The following gradient condition was used: 0–3.5 min, 10–65% B; 3.5–4.0 min, 65% B; 4.0–9.0 min, 10% B. To calculate the standard curve 0.1–100 μM of 4-MUG was used through drawing the peak area ration of 4-MUG/internal standard towards the concentration range of 4-MUG. The curve was linear over this concentration range, with an r^2 value > 0.99.
# (§3) The inhibition type and Kinetics were determined for the inhibition of NTR towards UGT1A3, UGT1A7 and UGT1A9. The glucuronidation velocity of 4-MU was determined at multiple concentrations of 4-MU and NTR. Dixon and Lineweaver–Burk plots were employed to determine the inhibition type, and the second plot of the slopes from the Lineweaver–Burk plot versus the compound concentrations was utilized to calculate the Ki value. The determination of IC50 was calculated using Probit analysis in SPSS11.5 (SPSS, Chicago, IL, USA). The Student’s t-test was adopted at a significance level of p < 0.05 to determine statistically significant differences among experimental groups.
# [2] = target: T2, UGT1A7 (Homo sapiens, UniProt Q9HAW7); experiment: as above; assay type: biochemical; conditions: for inhibition at 30 min, 100 µM: human, pH 7.4, probe 4-methylumbelliferone (4-MU), 30 μM, 100 μM compound, 4-MU probe substrate, negative = activation
# T2 construct: purchased BD Gentest Corp. (Woburn, MA, USA); host or cells: baculovirus-infected insect cells
# T2 sequence (Q9HAW7 26-530): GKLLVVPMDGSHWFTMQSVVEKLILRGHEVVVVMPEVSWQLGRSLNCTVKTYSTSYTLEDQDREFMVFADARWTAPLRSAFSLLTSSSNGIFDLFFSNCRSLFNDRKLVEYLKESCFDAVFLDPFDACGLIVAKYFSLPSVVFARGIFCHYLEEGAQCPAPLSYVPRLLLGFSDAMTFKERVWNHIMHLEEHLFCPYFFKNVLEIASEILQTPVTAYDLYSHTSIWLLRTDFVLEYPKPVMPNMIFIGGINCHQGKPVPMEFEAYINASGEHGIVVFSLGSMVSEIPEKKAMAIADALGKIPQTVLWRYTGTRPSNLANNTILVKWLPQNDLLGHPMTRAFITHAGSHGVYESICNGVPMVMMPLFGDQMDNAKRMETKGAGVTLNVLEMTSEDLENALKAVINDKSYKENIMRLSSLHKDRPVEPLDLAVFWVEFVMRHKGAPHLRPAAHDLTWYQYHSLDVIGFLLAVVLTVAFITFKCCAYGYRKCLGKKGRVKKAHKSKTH
# Procedure: as §1, §2, §3
# [3] = design: method as in PMID 27130074; conditions: after administration of 200 mg/kg MGF; cited from earlier work
"inhibition at 120 min, 100 µM [1]","inhibition at 30 min, 100 µM [2]","IC50 ([2]; 4-MU glucuronidation, Probit analysis, read-out: IC50 towards UGT1A7)",inhibition type towards UGT1A7 ([2]; Dixon plot and Lineweaver-Burk plot),"Ki ([2]; second plot of Lineweaver-Burk slopes, read-out: inhibition constant (Ki) towards UGT1A7)",Compound,Cmax [3],AUCNTR/AUCMGF [3]
14.5%,26.7%,,,,"O=c1c2cc(O)c(O)cc2oc2cc(O)c([C@@H]3O[C@H](CO)[C@@H](O)[C@H](O)[C@H]3O)c(O)c12 [MGF, 1,3,6,7-tetrahydroxyxanthone-C-2-β-D-glucoside]",202.58 ng/mL,
50.8%,94.9%,4.4 µM,competitively inhibited,2 µM,"O=c1c2cc(O)c(O)cc2oc2cc(O)cc(O)c12 [NTR, 1,3,6,7-tetrahydroxyxanthone]",< 3 ng/mL,< 3%
